Measurements published in patent publication US8349310B2, “Attractant compositions and method for attracting biting insects” (Bedoukian Research, Inc., priority 2007, dated 2013).

Assays:
Culex quinquefasciatus = details: electrophysiology test, reported in a published article; cited from earlier work
mosquitoes [1] = experiment: Field trap catch, Hock Model 1012 traps: CO2 plus 1,5Z-octadien-3-ol vs CO2 alone (Example 1); assay type: in vivo
Excerpt: (§1) Although, as stated above, this invention may be employed with any suitable trap or system, the invention has been tested and employed in a trap or system as described hereinafter. Mosquito traps Model 1012 manufactured by John W. Hock Company in Gainesville, Fla. were used in these tests. The traps use a stream of CO2 directed in the vicinity of a collection bag, with a fan used to blow mosquitoes into the bag. The light supplied to the trap was turned off. The traps were spaced 65-70 feet apart at the edge of a wetland in Danbury, Conn., at least 25 feet from any buildings. The 1,5-octadien-3-ol component was incorporated into a wax lure of the type manufactured by BioSensory, Inc. and placed near a stream of CO2 which was being released at a rate of approximately 150 ml/minute. The traps were operated from approximately 4:00 PM until 9:00 AM the next day. Daytime temperatures were approximately 70-75° F. during the trials.
To establish a baseline control the Hock traps with just CO2, and no added 1,5-octadien-3-ol component, were operated in the two areas on three days. The trap in area 1 (Trap A) caught 32 of the mosquitoes caught, and the trap in area 2 (Trap B) caught 23 of the mosquitoes caught. […]

mosquitoes [2] = experiment: Field trap catch, Hock traps: r-1-octen-3-ol with or without r-1,5Z-octadien-3-ol (Example 2); assay type: in vivo; details: for mosquitoes caught: Traps A and B, twelve day test period, attractant in 2 ml diethyl phthalate, 0.04 g r-1,5Z-octadien-3-ol tested together with 0.2 g r-1-octen-3-ol, r-1-octen-3-ol alone at 2 g
Excerpt: as §1
This test was conducted over a twelve-day period. The test was conducted to determine if 1,5-octadien-3-ol increases the trap catch of mosquitoes when added to a trap already containing the known attractant r-1-octen-3-ol. Traps A in area 1 and B in area 2, as described in Example 1, were employed. Both traps A and B were tested with (1) 0.2 g 100% r-1-octen-3-ol+0.04 g r-1,5Z-octadien-3-ol. in 2 ml diethyl phthalate, and (2) with 2 g 100% r-1-octen-3-ol in 2 ml diethyl phthalate (i.e., with no 1,5Z-octadien-3-ol present). Over the twelve day test period the traps with the 1,5z-octadien-3-ol present caught 239 mosquitoes and the traps without the 1,5Z-octadien-3-ol present caught 221 mosquitoes. Thus, the presence of the 1,5Z-octadien-3-ol increased the catch of mosquitoes by 8%.

C=CC(O)CC=CCC (stereo not drawn) [1,5-octadien-3-ol]
ability to attract mosquitoes (Culex quinquefasciatus): confirmed

C=CC(O)C/C=C\CC (stereo not drawn) [1,5Z-octadien-3-ol]
mosquitoes caught (mosquitoes [1]; Trap A (area 1), compound in trap plus 150 ml/minute CO2, four day test period, Trap B with CO2 only caught 35): 84 mosquitoes | catch ratio Trap A to Trap B (mosquitoes [1]; Trap A with compound plus CO2 vs Trap B with CO2 only, four days, baseline catch ratio 1.4 with CO2 only in both traps): 2.4

C=C[C@H](O)C/C=C\CC [r-1,5Z-octadien-3-ol]
mosquitoes caught (mosquitoes [2]): 239 mosquitoes | increase of the catch of mosquitoes (mosquitoes [2]; r-1-octen-3-ol plus r-1,5Z-octadien-3-ol vs r-1-octen-3-ol alone, twelve days): 8%

C=C[C@H](O)CCCCC [r-1-octen-3-ol, reference compound]
mosquitoes caught (mosquitoes [2]): 221 mosquitoes
